Assay results reported in PubChem BioAssay AID1745844 (Carcinogenic Potency Database (CPDB), 2022).
Active and inactive are the calls of the source. How the calls were made is not given here.

System: rodent lifetime carcinogenesis bioassay, tumor incidence TD50
Test: chronic cancer bioassays in animals – CPDB, compiled studies (AID 1745844)

For `CCCCNNCCCC`, the TD50 (mouse, strain Swiss albino, females, in drinking water, site: all sites, lesion: malignant lymphoma, dosed 93 weeks, study length 93 weeks) was 198 mg/kg/day, the carcinogen call (mouse, strain Swiss albino, females, in drinking water, site: liver, lesion: angioma, dosed 93 weeks, study length 93 weeks) was “negative (inactive)” and the carcinogen call (mouse, strain Swiss albino, females, in drinking water, site: liver, lesion: angiosarcoma, dosed 93 weeks, study length 93 weeks) was “negative (inactive)”. It also gave a TD50 (mouse, strain Swiss albino, females, in drinking water, site: lung, lesion: several types, types named in the paper, dosed 93 weeks, study length 93 weeks) of 69.8 mg/kg/day, a TD50 (mouse, strain Swiss albino, males, in drinking water, site: all sites, lesion: malignant lymphoma, dosed 87 weeks, study length 87 weeks) of 886 mg/kg/day and a TD50 (mouse, strain Swiss albino, males, in drinking water, site: kidney, lesion: several types, types named in the paper, dosed 87 weeks, study length 87 weeks) of 449 mg/kg/day. The carcinogen call (mouse, strain Swiss albino, males, in drinking water, site: liver, lesion: angioma, dosed 87 weeks, study length 87 weeks) was “negative (inactive)”, the carcinogen call (mouse, strain Swiss albino, males, in drinking water, site: liver, lesion: angiosarcoma, dosed 87 weeks, study length 87 weeks) was “negative (inactive)” and the TD50 (mouse, strain Swiss albino, males, in drinking water, site: lung, lesion: several types, types named in the paper, dosed 87 weeks, study length 87 weeks) was 34.5 mg/kg/day.
For `Cc1c2ccccc2c(C)c2c1ccc1ccccc12`, the TD50 (mouse, strain albino, females, in feed, site: forestomach, lesion: papilloma, dosed 60 weeks, study length 60 weeks) was 0.287 mg/kg/day and the TD50 (mouse, strain albino, females, in feed, site: mesenteric intestine, lesion: angio-endothelioma, malignant, dosed 60 weeks, study length 60 weeks) was 0.084 mg/kg/day.
`C=C1CC[C@H](O)C/C1=C/C=C1\CCC[C@]2(C)[C@@H]([C@H](C)/C=C/[C@H](C)C(C)C)CC[C@@H]12` gave a TD50 (mouse, strain C3H (MTV+), females, in feed, site: mammary gland, lesion: adenocarcinoma, dosed 104 weeks, study length 104 weeks) of 39.6 mg/kg/day.
In the case of `CCNNC(=O)[C@@H]1[C@H](c2cc(OC)c(OC)c(OC)c2)c2cc3c(cc2[C@H](O)[C@H]1CO)OCO3`, the carcinogen call (rat, strain BR 46, males, i.v., site: any site (literature study), lesion: several types, types named in the paper, dosed 52 weeks, study length 104 weeks) is reported as “negative (inactive)”.
`O=NN1CCNCC1` showed a TD50 (rat, strain MRC, females, in drinking water, site: any site (literature study), lesion: several types, types named in the paper, dosed 60 weeks, study length 127 weeks) of 5.51 mg/kg/day, a TD50 (rat, strain MRC, males, in drinking water, site: any site (literature study), lesion: several types, types named in the paper, dosed 60 weeks, study length 127 weeks) of 21.6 mg/kg/day and a TD50 (rat, strain MRC, males, in drinking water, site: liver, lesion: hepatoma, dosed 60 weeks, study length 127 weeks) of 6.52 mg/kg/day.
With `NC(=O)N(CC(=O)O)N=O` the TD50 (rat, strain Donryu, females, in drinking water, site: any site (literature study), lesion: several types, types named in the paper, dosed 68 weeks, study length 68 weeks) was 1.38 mg/kg/day, the TD50 (rat, strain Donryu, females, in drinking water, site: intestine, lesion: several types, types named in the paper, dosed 68 weeks, study length 68 weeks) was 5.37 mg/kg/day and the TD50 (rat, strain Donryu, females, in drinking water, site: mammary gland, lesion: fibroadenoma, dosed 68 weeks, study length 68 weeks) was 2.92 mg/kg/day. For the same compound, the TD50 (rat, strain Donryu, females, in drinking water, site: mammary gland, lesion: several types, types named in the paper, dosed 68 weeks, study length 68 weeks) was 2.3 mg/kg/day, the TD50 (rat, strain Donryu, females, in drinking water, site: small intestine, lesion: adenocarcinoma, dosed 68 weeks, study length 68 weeks) was 11.6 mg/kg/day and the TD50 (rat, strain Donryu, females, in drinking water, site: small intestine, lesion: adenoma, dosed 68 weeks, study length 68 weeks) was 8.09 mg/kg/day. For the same compound, the TD50 (rat, strain MRC-Wistar, males, in drinking water, site: any site (literature study), lesion: several types, types named in the paper, dosed 74 weeks, study length 130 weeks) was 13.1 mg/kg/day and the TD50 (rat, strain MRC-Wistar, males, in drinking water, site: epidermis, lesion: several types, types named in the paper, dosed 74 weeks, study length 130 weeks) was 34.8 mg/kg/day.
With `CC(=O)OC1CC(C)OC(C)O1` (stereo unspecified) the TD50 (mouse, strain B6C3F1, females, by gavage, site: any site (literature study), lesion: several types, types named in the paper, dosed 103 weeks, study length 104 weeks) was 3380 mg/kg/day (inactive), the TD50 (mouse, strain B6C3F1, females, by gavage, site: lung, lesion: alveolar/bronchiolar adenoma + alveolar/bronchiolar carcinoma, dosed 103 weeks, study length 104 weeks) was 10400 mg/kg/day and the TD50 (mouse, strain B6C3F1, males, by gavage, site: any site (literature study), lesion: several types, types named in the paper, dosed 103 weeks, study length 104 weeks) was 1820 mg/kg/day. The TD50 (mouse, strain B6C3F1, males, by gavage, site: forestomach, lesion: squamous-cell carcinoma + squamous-cell papilloma, dosed 103 weeks, study length 104 weeks) was 1440 mg/kg/day, the TD50 (mouse, strain B6C3F1, males, by gavage, site: liver, lesion: hepatocellular adenoma + hepatocellular carcinoma + neoplastic nodule, dosed 103 weeks, study length 104 weeks) was 1180 mg/kg/day and the TD50 (mouse, strain B6C3F1, males, by gavage, site: lung, lesion: alveolar/bronchiolar adenoma + alveolar/bronchiolar carcinoma, dosed 103 weeks, study length 104 weeks) was 1450 mg/kg/day. For the same compound, the carcinogen call (rat, strain Fischer 344, females, by gavage, site: any site (literature study), lesion: several types, types named in the paper, dosed 103 weeks, study length 104 weeks) was “negative (inactive)”, the TD50 (rat, strain Fischer 344, females, by gavage, site: liver, lesion: hepatocellular adenoma + hepatocellular carcinoma + neoplastic nodule, dosed 103 weeks, study length 104 weeks) was 2430 mg/kg/day and the carcinogen call (rat, strain Fischer 344, males, by gavage, site: any site (literature study), lesion: several types, types named in the paper, dosed 103 weeks, study length 104 weeks) was “negative (inactive)”. It also gave a TD50 (rat, strain Wistar, males, in drinking water, site: all sites, lesion: lymphosarcoma, dosed 87 weeks, study length 100 weeks) of 29800 mg/kg/day, a TD50 (rat, strain Wistar, males, in drinking water, site: all sites, lesion: myelogenous leukemia, dosed 87 weeks, study length 100 weeks) of 6770 mg/kg/day and a TD50 (rat, strain Wistar, males, in drinking water, site: any site (literature study), lesion: several types, types named in the paper, dosed 87 weeks, study length 100 weeks) of 419 mg/kg/day. It also gave a TD50 (rat, strain Wistar, males, in drinking water, site: kidney, lesion: papillary transitional-cell carcinoma, dosed 87 weeks, study length 100 weeks) of 6770 mg/kg/day, a TD50 (rat, strain Wistar, males, in drinking water, site: liver, lesion: hepatoma, dosed 87 weeks, study length 100 weeks) of 716 mg/kg/day and a TD50 (rat, strain Wistar, males, in drinking water, site: skin, lesion: epidermoid carcinoma, dosed 87 weeks, study length 100 weeks) of 6770 mg/kg/day. The TD50 (rat, strain Wistar, males, in drinking water, site: subcutaneous tissue, lesion: fibrosarcoma, dosed 87 weeks, study length 100 weeks) was 6770 mg/kg/day.
With `CC1CN(N=O)C(=O)O1` (stereo unspecified) the TD50 (hamster, strain Syrian Golden, females, by gavage, site: forestomach, lesion: several types, types named in the paper, dosed 28 weeks, study length 60 weeks) was 0.172 mg/kg/day.
